Assay results published in the NIST ThermoML archive (doi:10.1021/acs.jced.7b00452).

Assay: mn = molality of the nth substance listed, in mol/kg
Settings: 101.3 kPa, Liquid; for speed of sound: Single path-length method; for mass density: Vibrating tube method

CCN(CC)CCNC(=O)c1ccc(N)cc1.Cl [procainamide hydrochloride] + O
Settings	mass density, 298.15 K [kg/m3]	mass density, 308.15 K [kg/m3]	mass density, 318.15 K [kg/m3]	speed of sound, 298.15 K [m/s]	speed of sound, 308.15 K [m/s]	speed of sound, 318.15 K [m/s]
m1 = 0.0292	998.359	995.314	991.46	1501.6	1524.2	1538.9
m1 = 0.0328	998.521	995.471	991.615	1502.1	1524.6	1539.2
m1 = 0.043	998.975	995.914	992.05	1503.6	1525.8	1540.3
m1 = 0.0551	999.51	996.435	992.563	1505.4	1527.1	1541.3
m1 = 0.0689	1000.14	997.048	993.168	1507.5	1528.6	1542.7
m1 = 0.076	1000.45	997.346	993.461	1508.5	1529.5	1543.3
m1 = 0.0804	1000.66	997.55	993.641	1509.1	1530	1543.7
m1 = 0.0938	1001.27	998.14	994.212	1511.1	1531.7	1544.9
m1 = 0.1119	1002.05	998.919	994.982	1513.8	1533.8	1546.4
m1 = 0.1194	1002.38	999.225	995.305	1514.9	1534.8	1547.1
m1 = 0.1306	1002.87	999.706	995.779	1516.6	1536.1	1548
m1 = 0.1402	1003.3	1000.12	996.189	1517.9	1537.3	1548.9
m1 = 0.1601	1004.18	1000.98	997.035	1520.9	1539.7	1550.6
m1 = 0.1715	1004.66	1001.46	997.488	1522.6	1541.1	1551.6
